Experimental data: PMC6273715, “Synthesis and Evaluation of New Benzodioxole- Based Thiosemicarbazone Derivatives as Potential Antitumor Agents” (Molecules, 2016)
Where two headings read alike, the source gives them in different places.

Legend:
[1] = test system: A549 human lung adenocarcinoma cells; test: MTT cytotoxicity assay, A549; assay type: cell-based; conditions: MTT, 24 h, read-out: IC50 A549 Cell Line
Experimental: (§1) C6 Rat glioma and NIH/3T3 mouse embryonic fibroblast cells were incubated in Dulbecco’s Modified Eagle’s Medium (DMEM) (Sigma, Deisenhofen, Germany) supplemented with 10% fetal calf serum (Gibco, Paisley, UK). A549 Human lung adenocarcinoma cells were incubated in 90% RPMI supplemented with 10% fetal bovine serum (Gibco). […] Exponentially growing cells were plated at 2 × 10^4 cells/mL into 96-well microtiter tissue culture plates (Nunc, Roskilde, Denmark) and incubated for 24 h before the addition of the drugs (the optimum cell number for cytotoxicity assays was determined in preliminary experiments).
(§2) The level of cellular 3-(4,5-dimethylthiazol-2-yl)-2,5-diphenyltetrazolium bromide (MTT) (Sigma) reduction was quantified as previously described in the literature with small modifications. […] At the end of this period, MTT was added to a final concentration of 0.5 mg/mL and the cells were incubated for 4 h at 37 °C. After the medium was removed, the formazan crystals formed by MTT metabolism were solubilized by addition of 200 µL DMSO to each well and absorbance was read at 540 nm with a microtiter plate spectrophotometer (Bio-Tek Plate Reader, Winooski, VT, USA). Every concentration was repeated in three wells.

SIRT1 = test: Sirtuin-1 detection by ELISA in C6 glioma cells; assay type: cell-based, rat; conditions: 24 h
C6 cells [2] = test: Mitochondrial membrane potential (JC-1) flow cytometry, C6; assay type: cell-based, rat; conditions: IC50 dose, 24 h
Experimental: (§3) During apoptosis, several key events occur in mitochondria including the release of cytochrome c, changes in electron transport, and loss of mitochondrial transmembrane potential (ΔΨm). For this reason, ΔΨm is an important parameter of mitochondrial function in apoptosis.
(§4) The cells were seeded in six-well plates at a density of 10^5 cells/mL, and the IC50 dose of compounds 2, 5 and 10 was added to cells. The cells were incubated in 5% CO2 air-conditioned atmosphere at 37 °C. […] 5,5′,6,6′-Tetrachloro-1,1′,3,3′-tetraethylbenzimidazolylcarbocyanine iodide (JC-1) dye solution (1× assay buffer + JC-1 stock solution) was added to the cells. The stock solution was prepared by dissolving DMSO. Then the samples were incubated at a temperature of 37 °C for 10–15 min. After incubation, the cells were washed twice with an assay buffer and analyzed by BD FACS Aria Cell Sorter Software version 6.1.1 flow cytometry (BD Biosciences). The cells showing mitochondrial membrane potential disruption were determined as a percentage of all cells.

A549 cells [3] = test: Annexin V-PI flow cytometry of apoptosis, A549; assay type: cell-based; conditions: IC50 dose, 24 h
Experimental: (§5) Annexin V staining protocol was applied according to the manufacturer’s instructions (BD Pharmingen). The cells were then briefly washed with cold phosphate buffer saline (PBS) and suspended in a binding buffer at a concentration of 1 × 10^6 cells/mL. Then, 100 µL of this solution containing 1 × 10^5 cells was transferred to a 5 mL test tube. After 5 µL of Annexin-V and PI was added, the cells were incubated for 15 min at room temperature in the dark. Then 400 µL of 1x Binding Buffer was added to each tube and the cells were processed for data acquisition, and analyzed on a Becton–Dickinson FACS Aria using […] Version 6.1.1. Software (BD Biosciences, San Jose, CA, USA).

A549 cells [4] = test: DNA synthesis inhibition (BrdU ELISA), A549; assay type: cell-based, human; conditions: A549, compound at its IC50, 24 h
Experimental: (§6) The immunostaining procedure was carried out with specific anti-BrdU antibodies in the S-phase of the cell cycle. DNA synthesis inhibitory effects of all compounds were evaluated for 24 h. A549 and C6 cell lines were incubated with three different concentrations of the compounds that were determined according to their IC50 values. Cisplatin was used as a positive control.
(§7) Analysis of DNA synthesis was measured by a Cell Proliferation ELISA, BrdU (colorimetric) kit (Roche, Mannheim, Germany). This immunostaining procedure is based on measuring the incorporation of bromodeoxyuridine (BrdU) into nuclear DNA in place of thymidine during the S-phase of the cell cycle using specific anti-BrdU antibodies. […] Firstly cells were seeded into 96 well flat-bottomed microtiter plates at a density of 2 × 10^3. […] Microtiter plates were incubated at 37 °C in a 5% CO2/95% air humidified atmosphere for 24 h. Cells were labeled with 10 µL BrdU solution for 2 h and then fixed. Anti-BrdU-POD (100 µL) was added and incubated for 90 min. Finally, wells were washed with BPS and cells were incubated with substrate. Absorbance of the samples was measured with an ELX808-IU Bio-Tek apparatus at 492 nm. All experiments were repeated two times. For each compound dose, dublicate wells were used.

C6 cells [5] = test: DNA synthesis inhibition (BrdU ELISA), C6; assay type: cell-based, rat; conditions: C6, compound at its IC50, 24 h
Experimental: as §6, §7

A549 cells [6] = test: Mitochondrial membrane potential (JC-1) flow cytometry, A549; assay type: cell-based, human; conditions: IC50 dose, 24 h
Experimental: as §3, §4

C6 rat glioma cells = test: MTT cytotoxicity assay, C6; assay type: cell-based; conditions: MTT, 24 h, read-out: IC50 C6 Cell Line
Experimental: as §1, §2

C6 cells [7] = test: Annexin V-PI flow cytometry of apoptosis, C6; assay type: cell-based; conditions: IC50 dose, 24 h
Experimental: as §5

[8] = test system: NIH/3T3 mouse embryonic fibroblast cells; test: MTT cytotoxicity assay, NIH/3T3; assay type: cell-based; conditions: NIH3T3, 24 h, read-out: IC50 NIH/3T3 Cell Line
Experimental: C6 Rat glioma and NIH/3T3 mouse embryonic fibroblast cells were incubated in Dulbecco’s Modified Eagle’s Medium (DMEM) (Sigma, Deisenhofen, Germany) supplemented with 10% fetal calf serum (Gibco, Paisley, UK). A549 Human lung adenocarcinoma cells were incubated in 90% RPMI supplemented with 10% fetal bovine serum (Gibco). All media were supplemented with 100 IU/mL penicillin-streptomycin (Gibco) and cells were incubated at 37 °C in a humidified atmosphere of 95% air and 5% CO2. Exponentially growing cells were plated at 2 × 10^4 cells/mL into 96-well microtiter tissue culture plates (Nunc, Roskilde, Denmark) and incubated for 24 h before the addition of the drugs (the optimum cell number for cytotoxicity assays was determined in preliminary experiments). The stock solutions of the compounds were prepared in dimethyl sulfoxide (DMSO; Sigma Aldrich, Poole, UK) and further dilutions were made with fresh culture medium (the concentration of DMSO in the final culture medium was <0.1% which had no effect on the cell viability).
as §2

AChE = AChE (Electrophorus electricus, UniProt O42275); test: biochemical; assay type: biochemical; conditions: tested at 5–80 μg/mL
AChE, sequence (O42275 24-633): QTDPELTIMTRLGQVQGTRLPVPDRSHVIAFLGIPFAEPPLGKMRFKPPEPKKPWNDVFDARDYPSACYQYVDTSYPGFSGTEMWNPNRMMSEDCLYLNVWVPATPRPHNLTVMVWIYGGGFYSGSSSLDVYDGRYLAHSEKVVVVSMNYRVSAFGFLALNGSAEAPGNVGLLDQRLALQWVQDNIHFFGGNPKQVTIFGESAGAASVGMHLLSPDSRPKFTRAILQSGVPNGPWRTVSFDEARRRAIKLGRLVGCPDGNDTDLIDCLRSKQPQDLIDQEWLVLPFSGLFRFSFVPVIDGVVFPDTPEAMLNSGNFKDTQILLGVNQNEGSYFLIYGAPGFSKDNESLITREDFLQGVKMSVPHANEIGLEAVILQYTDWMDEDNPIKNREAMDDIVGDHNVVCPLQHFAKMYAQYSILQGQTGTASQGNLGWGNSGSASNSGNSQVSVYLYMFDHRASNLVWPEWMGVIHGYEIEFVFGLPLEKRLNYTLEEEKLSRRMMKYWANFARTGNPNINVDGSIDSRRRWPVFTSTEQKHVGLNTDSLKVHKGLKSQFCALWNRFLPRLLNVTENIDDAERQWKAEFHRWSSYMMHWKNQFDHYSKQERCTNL

BuChE = BuChE (Homo sapiens, UniProt P06276); test: BuChE inhibition, modified Ellman's method; assay type: biochemical
BuChE, sequence (P06276 29-602): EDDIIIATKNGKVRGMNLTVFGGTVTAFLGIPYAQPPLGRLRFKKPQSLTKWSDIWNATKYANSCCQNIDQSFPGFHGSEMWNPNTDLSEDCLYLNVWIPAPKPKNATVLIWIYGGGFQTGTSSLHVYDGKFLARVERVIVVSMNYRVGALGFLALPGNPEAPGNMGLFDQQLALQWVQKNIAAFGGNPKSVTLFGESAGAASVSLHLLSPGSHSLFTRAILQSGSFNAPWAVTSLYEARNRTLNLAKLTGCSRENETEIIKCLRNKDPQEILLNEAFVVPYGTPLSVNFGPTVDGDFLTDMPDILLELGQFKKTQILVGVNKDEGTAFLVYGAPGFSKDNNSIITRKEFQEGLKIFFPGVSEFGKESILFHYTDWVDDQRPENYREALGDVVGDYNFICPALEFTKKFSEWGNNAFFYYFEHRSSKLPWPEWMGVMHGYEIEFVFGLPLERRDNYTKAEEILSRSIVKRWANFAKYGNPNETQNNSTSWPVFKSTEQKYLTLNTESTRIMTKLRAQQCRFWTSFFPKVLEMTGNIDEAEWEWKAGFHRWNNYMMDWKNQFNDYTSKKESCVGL

ribonucleotide reductase = test system: ribonucleotide reductase; parameters: method as in PMID 21425997, PMID 22655252, PMID 22963201, PMID 19601577, PMID 26335599; conditions: both enzyme and cell assays; cited from earlier work

| SMILES | P2 (%) mitochondrial membrane polarized cells, C6 Cells (C6 cells [2]) [%] | P3 (%) mitochondrial membrane depolarized cells, C6 Cells (C6 cells [2]) [%] | Early and Late Apoptotic Cells % A549 Cells (A549 cells [3]) [%] | DNA synthesis inhibition percent (A549 cells [4]) [%] | DNA synthesis inhibition percent (C6 cells [5]) [%] | P2 (%) mitochondrial membrane polarized cells, A549 Cells (A549 cells [6]) [%] | P3 (%) mitochondrial membrane depolarized cells, A549 Cells (A549 cells [6]) [%] | Early and Late Apoptotic Cells % C6 Cells (C6 cells [7]) [%] | other results |
| --- | --- | --- | --- | --- | --- | --- | --- | --- | --- |
| N.N.[Cl][Pt][Cl] [Cisplatin, reference compound] | 46.6 | 48.4 | 32.4 | 55.73 | 53.95 | 41.4 | 54.0 | 16.3 | IC50 [1]: 3 ± 0.88 µM; SIRT1 Concentration (SIRT1; IC50/2 concentration): 4.53 ± 1.37 ng/mL; SIRT1 Concentration (SIRT1; IC50 concentration): 3.32 ± 1.41 ng/mL; IC50 (C6 rat glioma cells): 6.83 ± 0.28 µM |
| S=C(N/N=C/c1cc2c(cc1Br)OCO2)Nc1ccc2c(c1)OCO2 [Compound 10] | 35.1 | 63.7 | 6.2 | 56.38 | 53.96 | 21.9 | 57.9 | 15.8 | IC50 ([1]; Homo sapiens, A549): 29.7 ± 5.51 µM; Viability % A549 Cells (A549 cells [3]): 81.2%; IC50 [8]: 38.3 ± 2.08 µM; IC50 (AChE): 108 ± 3.53 µM; IC50 (C6 rat glioma cells; Rattus norvegicus, C6): 12.3 ± 4.93 µM; Viability % C6 Cells (C6 cells [7]): 69.6%; inhibition on BuChE (in words) (BuChE): weak inhibition; IC50 (BuChE; tested at 5–80 μg/mL): > 189 µM |
| NC(=S)NN=Cc1ncccc1N [Triapine, 3-aminopyridine-2-carboxaldehyde thiosemicarbazone] |  |  |  |  |  |  |  |  | potency relative to hydroxyurea (ribonucleotide reductase): 1000 times |
